# Experimental data taken from the supplement of paper PMC10307832.
# Legend:
# Assay in all cases: relative viability (nuclei count vs DMSO), 5 days (fraction); higher = more cells survive
# Crenolanib + Bortezomib = compound: CC1(COc2ccc3c(c2)ncn3-c2ccc3cccc(N4CCC(N)CC4)c3n2)COC1 [Crenolanib] + CC(C)C[C@H](NC(=O)[C@H](Cc1ccccc1)NC(=O)c1cnccn1)B(O)O [Bortezomib] (partner 0.002 µM)
# Procedure, shortened: (§1)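 Cells from lung cancer lines were seeded into 1536-well plates and, one day later, dosed by pin tool. Treatments were either a single drug or a fixed dose of an anchor drug with five library-drug doses (not always all listed) in √10 steps. After 5 days, nuclei were stained in a one-step fixation (final 0.05% Triton X-100, 1% formaldehyde, 1 ug/ml Hoechst) and counted on 4× images, and relative viability is the treated-to-vehicle nuclei ratio, as the median of duplicate plates.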
# Tivantinib + Dasatinib = compound: O=C1NC(=O)[C@@H](c2cn3c4c(cccc24)CCC3)[C@@H]1c1c[nH]c2ccccc12 [Tivantinib] + Cc1nc(Nc2ncc(C(=O)Nc3c(C)cccc3Cl)s2)cc(N2CCN(CCO)CC2)n1 [Dasatinib] (partner 0.075 µM)
# Procedure, shortened: as §1
# Tivantinib + Luminespib = compound: O=C1NC(=O)[C@@H](c2cn3c4c(cccc24)CCC3)[C@@H]1c1c[nH]c2ccccc12 [Tivantinib] + CCNC(=O)c1noc(-c2cc(C(C)C)c(O)cc2O)c1-c1ccc(CN2CCOCC2)cc1 [Luminespib] (partner 0.01 µM)
# Procedure, shortened: as §1
# Crenolanib + Decitabine = compound: CC1(COc2ccc3c(c2)ncn3-c2ccc3cccc(N4CCC(N)CC4)c3n2)COC1 [Crenolanib] + Nc1ncn([C@H]2C[C@H](O)[C@@H](CO)O2)c(=O)n1 [Decitabine] (partner 2 µM)
# Procedure, shortened: as §1
Cell Line,relative viability (Crenolanib + Bortezomib; first compound 0.01 µM),relative viability (Crenolanib + Bortezomib; first compound 0.03162 µM),relative viability (Crenolanib + Bortezomib; first compound 0.1 µM),relative viability (Crenolanib + Bortezomib; first compound 0.3162 µM),relative viability (Crenolanib + Bortezomib; first compound 1 µM),relative viability (Tivantinib + Dasatinib; first compound 0.01 µM),relative viability (Tivantinib + Dasatinib; first compound 0.03162 µM),relative viability (Tivantinib + Dasatinib; first compound 0.1 µM),relative viability (Tivantinib + Dasatinib; first compound 0.3162 µM),relative viability (Tivantinib + Luminespib; first compound 0.01 µM),relative viability (Tivantinib + Luminespib; first compound 0.03162 µM),relative viability (Tivantinib + Luminespib; first compound 0.1 µM),relative viability (Tivantinib + Luminespib; first compound 0.3162 µM),relative viability (Crenolanib + Decitabine; first compound 0.01 µM),relative viability (Crenolanib + Decitabine; first compound 0.03162 µM),relative viability (Crenolanib + Decitabine; first compound 0.1 µM),relative viability (Crenolanib + Decitabine; first compound 0.3162 µM),relative viability (Crenolanib + Decitabine; first compound 1 µM)
NCI-H1299,1.04,1.02,0.968,1.04,1.03,,,,,,,,,,,,,
NCI-H1395,,,,,,0.396,0.339,0.437,0.434,0.82,0.662,0.557,0.403,0.754,0.674,0.739,0.695,0.669
NCI-H1563,0.926,0.901,0.897,0.865,0.829,0.453,0.443,0.514,0.399,0.52,0.517,0.478,0.534,,,,,
NCI-H1623,,,,,,0.464,0.424,0.494,,0.504,0.553,0.545,,,,,,
NCI-H1648,,,,,,,,,,,,,,0.521,,0.477,0.467,0.59
NCI-H1703,0.419,0.231,0.218,0.207,0.181,,,,,,,,,,,,,
NCI-H1793,,,,,,0.345,0.419,0.376,0.346,0.186,0.22,0.156,0.203,0.649,0.495,0.537,0.549,0.475
NCI-H1944,,,,,,0.219,0.196,0.211,0.208,0.712,0.609,0.697,0.608,0.474,0.441,0.423,0.468,0.458
NCI-H2170,,,,,,0.659,0.469,0.558,,0.527,0.594,0.672,,0.474,0.504,0.452,0.506,0.454
NCI-H2228,1.11,0.922,0.776,1.01,0.887,,0.484,0.539,0.352,,0.152,0.168,0.125,,,,,
NCI-H2342,,,,,,0.31,0.296,0.322,0.31,0.741,0.739,0.716,0.598,0.766,0.649,0.742,0.903,0.694
SK-MES-1,,,,,,0.521,0.386,0.309,0.186,0.763,0.747,,0.828,0.315,0.451,0.42,0.385,0.359
SW 900,,,,,,0.582,0.735,0.467,0.611,0.191,0.177,0.162,0.145,0.48,,0.507,0.517,0.407
